Tested on: microbial growth
Experiment: Inhibition of microbial growth (preservative effect)

| Compound | effectiveness at inhibiting microbial growth compared with propylene glycol | amount that can inhibit microbial growth and act as a preservative (in casing) |
| --- | --- | --- |
| O=C(O)CC(O)(CC(=O)O)C(=O)O [citric acid] | more effective at inhibiting microbial growth than propylene glycol |  |
| CC(O)CO (centres unmarked) [propylene glycol] |  | above 15 % by weight |

From patent US12171255B2, “Shisha, heat-not-burn, or combustion casing, product, and method of making the same” (Tobacco Technology, Inc., priority 2020, dated 2024)
